Data from patent US20220227729A1, “IDENTIFICATION AND USE OF KRAS INHIBITORS” (Bayer Aktiengesellschaft, priority 2019, published 2022).

Experiments:
KRAS^WT = KRAS^WT (Homo sapiens, UniProt P01116); experiment: Wild-type KRAS activation by SOS1cat assay, HTRF; settings: SOS1cat mediated loading of GST-KRAS WT-GDP with fluorescent GTP analogue; 50 nM GST-KRAS WT; read-out: IC50 value biochemical KRAS^wt activation assay
Procedure: (§1) Preparation of test compound dilutions. A 100-fold concentrated solution of the test compound (50 nL) in DMSO was transferred to microtiter test plates (384 or 1,536 wells, Greiner Bio-One, Germany) using either a Hummingbird liquid handler (Digilab, MA, USA) or an Echo acoustic system (Labcyte, CA, USA). Plates were sealed with adhesive foil or heat-sealed and stored at −20° C. until use. Serial dilutions of test compounds were prepared in 100% DMSO using a Precision Pipetting System (BioTek, USA).
(§2) Measurement and evaluation of inhibition data, calculation of IC50 values. Homogeneous time-resolved fluorescence (HTRF) was measured with a PHERAstar reader (BMG, Germany) using the HTRF module (excitation: 337 nm; emission 1: 620 nm, emission 2: 665 nm). The ratio of the emissions at 665 and 620 nm was used as the specific signal for further evaluation. The data were normalized using the controls: DMSO=0% inhibition, inhibition control wells with inhibitor control solution=100% inhibition. Compounds were tested in duplicates at up to 11 concentrations (e.g. 20 μM, 5.7 μM, 1.6 μM, 0.47 μM, 0.13 μM, 38 nM, 11 nM, 3.1 nM, 0.89 nM, 0.25 nM and 0.073 nM). IC50 values were calculated using a four-parameter fit, with a commercial software package (Genedata Screener, Switzerland).
(§3) KRAS^G12C activation by SOS1^cat assay (“On-assay”). This assay quantifies SOS1^cat mediated loading of KRAS^G12C-GDP with a fluorescent GTP analogue. Detection of successful loading was achieved by measuring resonance energy transfer from anti-GST-terbium (FRET donor) bound to GST-KRAS^G12c to the loaded fluorescent GTP analogue (FRET acceptor). The fluorescent GTP analogue EDA-GTP-DY-647P1 [2′/3′-O-(2-aminoethyl-carbamoyl)guanosine-5′-triphosphate labelled with DY-647P1 (Dyomics GmbH, Germany)] was synthesized by Jena Bioscience (Germany) and supplied as a 1 mM aqueous solution. A KRAS^G12C working solution was prepared in assay buffer [10 mM HEPES pH 7.4 (AppliChem), 150 mM NaCl (Sigma), 5 mM MgCl2 (Sigma), 1 mM DTT (Thermo Fisher), 0.05% BSA Fraction V pH 7.0 (ICN Biomedicals), 0.0025% (v/v) Igepal (Sigma)] containing 100 nM GST-KRAS^G12C and 2 nM anti-GST-terbium (Cisbio, France). A SOS1^cat working solution was prepared in assay buffer containing 20 nM SOS1^cat and 200 nM EDA-GTP-DY-647P1. An inhibitor control solution was prepared in assay buffer containing 200 nM EDA-GTP-DY-647P1 without SOS1^cat. All steps of the assay were performed at 20° C. A volume of 2.5 μL of the KRAS^G12C working solution was added to all wells of the test plate using a Multidrop dispenser (Thermo LabSystems). After 180 min, 2.5 μL of the SOS1^cat working solution was added to all wells, except for the inhibitor control solution wells. After 30 min incubation, HTRF was measured.
Wild-type KRAS activation by SOS1^cat assay. This assay quantifies human SOS1^cat mediated loading of wild-type GST-KRAS^WT-GDP with a fluorescent GTP analogue. The assay was performed similar to the KRAS^G12C activation by SOS1^cat assay. GST-KRAS^G12C was replaced by GST-KRAS^WT, which was used at 50 nM final concentration.

[1] = biological target: recombinant kRas mutant (G12C; C51S; C80L; C118S) (Homo sapiens, UniProt P01116, C118S/C51S/C80L/G12C); experiment: Covalent binding assay, intact mass LC-MS; settings: 25 μM protein, 25 μM compound, room temperature, 2 h
Procedure: The percentage of covalent adduct formation at KRas G12C was determined by intact mass determination. To this end 25 μM recombinant kRas mutant (G12C; C51S; C80L; C118S) (storage buffer: 50 mM Tris, pH=8; 50 mM NaCl) were incubated with 25 μM of compound (1% v/v final DMSO concentration) at room temperature for 2 h. For LC-MS analysis the reaction was acidified by adding 4 μL of 4% v/v TFA to 20 μL reaction volume.
Liquid chromatography-mass spectrometry (LC-MS) analysis was performed using a Waters SYNAPT G2-S quadrupole time-of-flight mass spectrometer connected to a Waters nanoAcquity UPLC system. Samples were loaded on a 2.1×5 mm mass prep C4 guard column (Waters) and desalted with a short gradient (3 min.) of increasing concentrations of acetonitrile at a flow rate of 100 μL/min. Spectra were analyzed by using MassLynx v4.1 software and deconvoluted with the MaxEnt1 algorithm.
Percent conversion was determined by the ratio of signal intensities of apo-kRas and kRas+inhibitor.

KRAS^G12C = KRAS^G12C (Homo sapiens, UniProt P01116, G12C); experiment: KRAS G12C activation by SOS1cat assay (On-assay), HTRF; settings: SOS1cat mediated loading of GST-KRAS G12C-GDP with fluorescent GTP analogue; 180 min preincubation; 20° C.; read-out: IC50 value biochemical KRAS^G12C activation assay
Procedure: as §1, §2, §3

Row | Compound | IC50 (KRAS^WT) [µM] | Covalent Binding Assay (% binding) [1] [%] | IC50 (KRAS^G12C) [µM]
1 | C=CC(=O)N1CCC(c2cc3ncc(-c4c(F)cccc4OC)cc3c(=O)[nH]2)C1 (stereo not drawn) [Example 28, 3-(2-Fluoro-6-methoxyphenyl)-7-[1-(prop-2-enoyl)pyrrolidin-3-yl]-1,6-naphthyridin-5(6H)-one] | > 20 | 52 | 10
2 | C=CC(=O)N1CCC(c2cc3ncc(-c4ccccc4F)cc3c(=O)[nH]2)C1 (stereo not drawn) [Example 30, 3-(2-Fluorophenyl)-7-[1-(prop-2-enoyl)pyrrolidin-3-yl]-1,6-naphthyridin-5(6H)-one] | > 20 | 69 | 5.3
3 | C=CC(=O)N1CCC(c2cc3ncc(-c4ccc(F)cc4F)cc3c(=O)[nH]2)C1 (stereo not drawn) [Example 31, 3-(2,4-Difluorophenyl)-7-[1-(prop-2-enoyl)pyrrolidin-3-yl]-1,6-naphthyridin-5(6H)-one] | > 20 | 62 | > 14
4 | C=CC(=O)N1CCC(c2cc3ncc(-c4ccccc4CC)cc3c(=O)[nH]2)C1 (stereo not drawn) [Example 33, 3-(2-Ethylphenyl)-7-[1-(prop-2-enoyl)pyrrolidin-3-yl]-1,6-naphthyridin-5(6H)-one] | > 20 | 60 | 6.8
5 | C=CC(=O)N1CCC(c2cc3ncc(-c4sc(C)nc4C)cc3c(=O)[nH]2)C1 (stereo not drawn) [Example 34, 3-(2,4-Dimethyl-1,3-thiazol-5-yl)-7-[1-(prop-2-enoyl)pyrrolidin-3-yl]-1,6-naphthyridin-5(6H)-one] | > 20 | 0 | > 20
6 | C=CC(=O)N1CCC(c2cc3ncc(-c4cccnc4N4CCOCC4)cc3c(=O)[nH]2)C1 (stereo not drawn) [Example 35, 3-[2-(Morpholin-4-yl)pyridin-3-yl]-7-[1-(prop-2-enoyl)pyrrolidin-3-yl]-1,6-naphthyridin-5(6H)-one] | > 20 | 0 | > 20
7 | C=CC(=O)N1CCC(c2cc3ncc(-c4cc(O)ccc4F)cc3c(=O)[nH]2)C1 (stereo not drawn) [Example 36, 3-(2-Fluoro-5-hydroxyphenyl)-7-[1-(prop-2-enoyl)pyrrolidin-3-yl]-1,6-naphthyridin-5(6H)-one] | > 20 | 85 | 2.7
8 | C=CC(=O)N1CCC(c2cc3ncc(-c4ccc(F)c(O)c4)cc3c(=O)[nH]2)C1 (stereo not drawn) [Example 37, 3-(4-Fluoro-3-hydroxyphenyl)-7-[1-(prop-2-enoyl)pyrrolidin-3-yl]-1,6-naphthyridin-5(6H)-one] | > 20 | 21 | > 20
9 | C=CC(=O)N1CCC(c2nc3ccc(-c4c(O)cccc4F)nc3c(=O)[nH]2)C1 (stereo not drawn) [Example 38, 6-(2-Fluoro-6-hydroxyphenyl)-2[1-(prop-2-enoyl)pyrrolidin-3-yl]pyrido[3,2-d]pyrimidin-4(3H)-one] | > 20 | 0 | > 20
10 | C=CC(=O)N1CCC(c2nc3cnc(-c4c(C)ccc5[nH]ncc45)cc3c(=O)[nH]2)C1 (stereo not drawn) [Example 40, 6-(5-Methyl-1H-indazol-4-yl)-2-[1-(prop-2-enoyl)pyrrolidin-3-yl]pyrido[3,4-d]pyrimidin-4(3H)-one] | > 20 | 66 | 4.7
11 | C=CC(=O)N1CCC(c2cc3cnc(-c4c(F)cccc4OC)cc3c(=O)[nH]2)C1 (stereo not drawn) [Example 41, 7-(2-Fluoro-6-methoxyphenyl)-3-[1-(prop-2-enoyl)pyrrolidin-3-yl]-2,6-naphthyridin-1(2H)-one] | > 20 | 32 | > 20

Further lines, results first:

Row | IC50 (KRAS^WT) [µM] | Covalent Binding Assay (% binding) [1] [%] | IC50 (KRAS^G12C) [µM] | Compound
12 | > 20 | 3 | > 20 | C=CC(=O)N1CCC(c2nc3ccc(-c4cccnc4N4CCOCC4)cc3c(=O)[nH]2)C1 (stereo not drawn) [Example 20, 6-[2-(Morpholin-4-yl)pyridin-3-yl]-2-[1-(prop-2-enoyl)pyrrolidin-3-yl]quinazolin-4(3H)-one]
13 | > 20 | 26 | > 20 | C=CC(=O)N1CCC(c2nc3cc(Cl)c(-c4c(F)cccc4OC)cc3c(=O)[nH]2)C1 (stereo not drawn) [Example 21, 7-Chloro-6-(2-fluoro-6-methoxyphenyl)-2-[1-(prop-2-enoyl)pyrrolidin-3-yl]quinazolin-4(3H)-one]
14 | > 20 | 31 | 18 | C=CC(=O)N1CCC(c2nc3cc(Cl)c(-c4ccccc4F)cc3c(=O)[nH]2)C1 (stereo not drawn) [Example 22, 7-Chloro-6-(2-fluorophenyl)-2-[1-(prop-2-enoyl)pyrrolidin-3-yl]quinazolin-4(3H)-one]
15 | > 20 | 34 | > 20 | C=CC(=O)N1CCC(c2nc3cc(Cl)c(-c4ccc(F)cc4F)cc3c(=O)[nH]2)C1 (stereo not drawn) [Example 23, 7-Chloro-6-(2,4-difluorophenyl)-2-[1-(prop-2-enoyl)pyrrolidin-3-yl]quinazolin-4(3H)-one]
16 | > 20 | 53 | 9.1 | C=CC(=O)N1CCC(c2nc3cc(Cl)c(-c4c(O)cccc4F)cc3c(=O)[nH]2)C1 (stereo not drawn) [Example 24, 7-Chloro-6-(2-fluoro-6-hydroxyphenyl)-2-[1-(prop-2-enoyl)pyrrolidin-3-yl]quinazolin-4(3H)-one]
17 | > 20 | 81 | 5 | C=CC(=O)N1CCC(c2nc3cc(Cl)c(-c4c(C)ccc5[nH]ncc45)cc3c(=O)[nH]2)C1 (stereo not drawn) [Example 25, 7-Chloro-6-(5-methyl-1H-indazol-4-yl)-2-[1-(prop-2-enoyl)pyrrolidin-3-yl]quinazolin-4(3H)-one]
18 | > 20 | 41 | > 19 | C=CC(=O)N1CCC(c2nc3cc(Cl)c(-c4cccc5ncccc45)cc3c(=O)[nH]2)C1 (stereo not drawn) [Example 26, 7-chloro-2-[1-(prop-2-enoyl)pyrrolidin-3-yl]-6-(quinolin-5-yl)quinazolin-4(3H)-one]
19 | > 20 | 13 | > 20 | C=CC(=O)N1CCC(c2cc3ncc(-c4cccc5ncccc45)cc3c(=O)[nH]2)C1 (stereo not drawn) [Example 32, 7-[1-(Prop-2-enoyl)pyrrolidin-3-yl]-3-(quinolin-5-yl)-1,6-naphthyridin-5(6H)-one]
20 | > 20 | 73 | 2.6 | C=CC(=O)N1CCC(c2nc3cnc(-c4c(O)cccc4F)cc3c(=O)[nH]2)C1 (stereo not drawn) [Example 39, 6-(2-Fluoro-6-hydroxyphenyl)-2-[1-(prop-2-enoyl)pyrrolidin-3-yl]pyrido[3,4-d]pyrimidin-4(3H)-one]
